The values that follow come from publication PMC10010340, “The Wnt Pathway Inhibitor RXC004 Blocks Tumor Growth and Reverses Immune Evasion in Wnt Ligand–dependent Cancer Models” (Cancer Research Communications, 2022).

Series [1] deals with HPAF-II xenograft. Nature of the series: In vivo 18FDG-PET biodistribution. Set-up: species or system mouse (NOD-SCID). The note with it: 5 mg/kg once daily, 7-day dosing. How it is done: Experiment was performed at Medicines Discovery Catapult. SNU-1411 (1 × 10^7 cells; NOD-SCID mice) or HPAF-II (1 × 10^7 cells; NOD-SCID mice) were implanted subcutaneously and treatment with RXC004 (5 mg/kg once daily) or vehicle commenced when tumors reached approximately 200 mm^3. Mice were imaged prior to dosing, day 3 and day 7 after dosing. A 10 MBq injection of ^18FDG (PETNET), with a 45-minute washout was followed by a 20-minute PET scan using a Siemens Inveon PET scanner. Tissues removed on day 7 for biodistribution analysis were assessed using a PerkinElmer Wallac Wizard Gamma counter.

In series [2] the target is T1, Porcupine (Homo sapiens, UniProt Q9H237).
T1 construct: HEK293T cells were transfected with GFP-Wnt1-Fc constructs; endogenous in cells; host or cells: HEK293T
Nature of the series: Wnt palmitoylation assay (GFP-Wnt1-Fc in HEK293T cells). To be noted: 100 nmol/L; GFP-Wnt1-Fc in HEK293T cells with alkyne palmitate. It counts as cell-based. Here is the method:
Palmitoylation of Wnt was performed by the Burris group, under a fee-for-service agreement, and was detected as described in Galli and colleagues ([16]). Briefly, HEK293T cells were transfected with GFP-Wnt1-Fc constructs, followed by overnight incubation with alkyne palmitate (Alk-C16) in the presence of DMSO or 100 nmol/L RXC004. Cells were lysed and A/G agarose beads used to pull down GFP-Wnt1-Fc, which was then subjected to click chemistry to covalently attach biotin azide to any attached alkyne palmitate. Following SDS-PAGE and Western blotting, palmitoylation of Wnt was detected using Streptavidin IR 800 dye. GFP detection served as a transfection and/or loading control.

Series [3] concerns SNU-1411 cells. Nature of the series: Caspase 3/7 analysis. It is filed as cell-based, human. To be noted: SNU-1411, 100nM, 7 days. How it is done:
(§1) Cells were treated with RXC004 (100 nmol/L) or DMSO (0.02%) for 7 days. Caspase 3/7 activity was measured using Caspase-Glo 3/7 Assay System (Promega #G8091) and data were plotted as a ratio relative to cell number as quantified using ATPlite 1-Step Reagent (Perkin Elmer #6016731).

The subject of series [4] is HPAF-II cells. Put plainly: Caspase 3/7 analysis. It is filed as cell-based, human. To be noted: 100nM, 7 days. How it is done: as §1
Series [5] relates to SNU-1411 xenograft. Put plainly: Xenograft pilot study. The note with it: SNU-1411, 1.5 mg/kg twice daily oral. It is filed as in vivo, mouse (NOD-SCID). How it is done: The in vivo pilot studies were performed at Axis Bioservices. HPAF-II (5 × 10^6 cells; athymic nude mice), AsPC1 (3 × 10^6 cells; athymic nude mice), and SNU-1411 (1 × 10^7 cells; NOD-SCID mice) were implanted bilaterally, subcutaneously, whereas HCT116 (3 × 10^6 cells; athymic nude mice) were implanted in a single flank. Animals were randomized into the indicated groups and treatment initiated once tumor volumes reached approximately 100–150 mm^3. Dosing was either 1.5 mg/kg twice daily RXC004 for 7–13 days then once daily for the remainder of study (up to 29 days), or 28 days 1.5 mg/kg twice daily RXC004 for HCT116. In these and all other animal studies, unless otherwise specified, RXC004 was dosed orally in 0.5% carboxymethylcellulose + 0.1% Tween-80. For AsPC1, an ascites model, end of study tumor weight (mg) was measured. A total of 12 hours after the final dose, RNA was extracted [GenElute RNA isolation kit (#RTN70, Sigma)] from snap frozen tumor for qRT-PCR expression analysis of Axin2, c-Myc, RNF43, MUC4, and MUC5AC relative to appropriate housekeepers.

Series [6] relates to CT26 tumors. Put plainly: CT26/BALB/c syngeneic model. It counts as in vivo, mouse (BALB/c). The note with it: RXC004 1.5 or 5 mg/kg once daily; anti-PD-1 10 mg/kg every 3 days. How it is done:
CT26/BALB/c syngeneic model was performed at ProQuinase GmbH. Mouse CT26 cells (5 × 10^5) were subcutaneously implanted in the flanks of the immunocompetent female BALB/c mice. Treatment was initiated once tumors reached approximately 50 mm^3. RXC004 was dosed orally at 1.5 or 5 mg/kg (once daily). Anti-PD-1 (BioXCell) or isotype control was dosed every 3 days at 10 mg/kg i.p. Tumor volume was measured over time. For immunophenotyping the tumor infiltrate, tumors from a separate study were resected at day 14, weighed, digested, and stained for flow cytometry analysis by Beckton Dickenson LSR Fortessa. T-cell analysis panel included viability dye, CD45, CD3, CD4, CD8, CD25, and FOXP3.

Series [7] deals with HPAF-II cells cocultured with human PBMCs. Nature of the series: HPAF-II / human PBMC coculture. It is filed as cell-based. To be noted: HPAF-II pretreated 100 nmol/L, 3 days. How it is done:
HPAF-II cells were incubated for 3 days with RXC004 (100 nmol/L) or DMSO control, washed and detached using Accutase and equal number of viable cells (as assessed by Trypan Blue exclusion) per treatment were reseeded in 96-well plates. Frozen human peripheral blood mononuclear cells (PBMC), originally collected by density gradient separation using Histopaque from four healthy donors, were thawed and cultured in complete media. After approximately 40 hours, nonadherent PBMCs were added to coculture with the HPAF-II cells, at a PBMC:HPAF-II ratio of 5:1. T-cell proliferation and cytokine production was stimulated using Immunocult CD3/CD28-tetramer (Stemcell Technologies #10971). For monoculture nonadherent PBMC experiments, T cells were stimulated using Immunocult in the presence or absence of recombinant Wnt3a (Biotechne #5036-WN-010) and/or recombinant Wnt5a (Biotechne #645-WN-010), both at 100 ng/mL. After 5 days, supernatants from monoculture or coculture experiments were removed for analysis, whereas suspension cells were fixed, stained with anti-Ki67 (BD #563462), anti-CD4 (BioLegend #317420), and anti-CD8 (BD #564116) antibodies, before flow cytometry was performed on a Novocyte flow cytometer. Cytokines and chemokines in the supernatant were quantified using a 30-plex panel on Magpix (Thermo Fisher Scientific #LHC6003M) or ELISA for IFNγ (R&D Systems # DY285B-05).

Series [8] in a line: Plasma protein binding. It counts as in vitro ADME. How it is done:
Plasma protein binding: Mouse, rat, dog, and human plasmas were obtained from TCS Biosciences Ltd and Sera Laboratories Ltd. A total of 20 μmol/L RXC004 in 10% plasma diluted with phosphate buffer was dialyzed against phosphate buffer for 18 hours at 37°C. The concentration of RXC004 each side of the dialysis plate was determined by LC/MS-MS. Results were corrected to 100% plasma.

T1 sequence (Q9H237 whole entry): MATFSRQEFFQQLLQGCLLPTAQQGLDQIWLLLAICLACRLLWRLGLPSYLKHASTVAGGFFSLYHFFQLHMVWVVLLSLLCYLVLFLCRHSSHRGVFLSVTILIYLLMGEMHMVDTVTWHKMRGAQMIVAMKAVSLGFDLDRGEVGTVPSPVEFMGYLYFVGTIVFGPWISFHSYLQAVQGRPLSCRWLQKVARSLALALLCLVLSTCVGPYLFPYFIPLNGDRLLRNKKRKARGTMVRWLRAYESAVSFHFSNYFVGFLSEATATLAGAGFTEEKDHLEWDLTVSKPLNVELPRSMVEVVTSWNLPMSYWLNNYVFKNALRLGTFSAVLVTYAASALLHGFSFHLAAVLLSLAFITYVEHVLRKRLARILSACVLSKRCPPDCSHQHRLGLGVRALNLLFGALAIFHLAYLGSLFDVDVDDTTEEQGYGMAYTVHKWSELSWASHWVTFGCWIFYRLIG

Regarding `Cc1c(-c2ccnc(C(F)(F)F)c2)ncn1CC(=O)Nc1ccc(-c2cnccn2)cn1` [RXC004, 2-[5-methyl-4-[2-(trifluoromethyl)-4-pyridyl]imidazol-1-yl]-N-(5-pyrazin-2-yl-2-pyridyl)acetamide], in series [1], the “18FDG tumor:blood ratios” value is reported as “significant decrease in tumor:blood ratios”. For the same molecule, the “palmitoylation of Wnt” value in series [2] is “inhibited palmitoylation of Wnt”. Moreover, the “relative Caspase 3/7 activity” value in series [3] and in series [4] was “no effect” in each case. In series [5], the “Wnt-responsive gene expression in tumor including c-Myc” value is “inhibition of Wnt-responsive gene expression”. Also, the tumor growth entry in series [5] is given as “reduction in tumor growth”; in series [6], “limited effect on tumor growth”. Besides, the “HPAF-II inhibition of T-cell proliferation and IFNγ/GMCSF release” value in series [7] is listed as “fully reversed”. The “release of CXCL9” value in series [7] was “potentiated the HPAF-II–dependent release of the chemokine CXCL9”. In addition, in series [7], the “secretion of VEGF” value was “reducing the HPAF-II–dependent secretion of the angiogenesis promoting growth factor VEGF”. The “Plasma protein binding (% free)” value was 2.5 % free in series [8] (Dog), 4.2 % free in series [8] (Human), 7.5 % free in series [8] (Mouse) and 5.0 % free in series [8] (Rat).
